Assay results published in patent publication US12398097B2, “WDR5-MYC inhibitors” (Vanderbilt University, priority 2019, dated 2025).

These molecules were tested against WDR5 (Homo sapiens, UniProt P61964) (assay: Competition-based fluorescence polarization anisotropy assay). Details: binding to WDR5; displacement of FITC-labeled small molecule probe (analogous to Example J2 or HCH-25) or peptide probe FITC-AHx-SEEEIDVVSV; pH 6.0; Ki converted from IC50.
Description: Compounds of the present invention were assessed for their ability to bind to WDr5 using a competition-based fluorescence polarization anisotropy assay, similar to the method previously described. […] Fluorescence polarization measurements were performed in 384-well plates (Greiner Bio One) using a Cytation 3 plate reader (BioTek). Fluorescein isothiocyanate (FITC)-labeled peptide probe ([…]) was purchased from GenScript USA Inc and used without further purification. […] The assay buffer contained 200 mM phosphate, 300 mM NaCl, and 0.5 mM TCEP and 0.1% Chaps at pH 6.0. […] This was converted into a binding dissociation constant (Ki value) according to the formula: […] Data shown in the table below represents a K; determined from this method for each Example, using either a fluorescently labeled small molecule probe analogous to Example J2 or Example HCH-25, or the peptide probe described above, in the assay.

Molecule	Ki [nM]
2-Bromo-N-(5-chloro-2-hydroxy-3-nitrophenyl)-4-ethyl-5-hydroxybenzenesulfonamide [NE3]	60
O=C(NC1CC(O)C1)c1cc(OC(F)(F)F)cc(NS(=O)(=O)c2cc(Br)ccc2O)c1O (mixture of isomers) [HCH-3, 3-((5-Bromo-2-hydroxyphenyl)sulfonamido)-2-hydroxy-N-(3-hydroxycyclobutyl)-5-(trifluoromethoxy)benzamide]	510
COc1cc(Cl)c(Br)cc1S(=O)(=O)Nc1cc(Cl)cc(C(=O)O)c1O [Example J7, 3-((5-Bromo-4-chloro-2-methoxyphenyl)sulfonamido)-5-chloro-2-hydroxybenzoic acid]	3750
COc1cc(F)c(Br)cc1S(=O)(=O)Nc1cc(Cl)cc(C(=O)O)c1O [Example J8, 3-((5-Bromo-4-fluoro-2-methoxyphenyl)sulfonamido)-5-chloro-2-hydroxybenzoic acid]	2770
O=C(O)c1cc(Cl)cc(NS(=O)(=O)c2cc(Br)c(F)cc2O)c1O [Example J9, 3-((5-Bromo-4-fluoro-2-hydroxyphenyl)sulfonamido)-5-chloro-2-hydroxybenzoic acid]	2670
O=C(O)c1cc(Cl)cc(NS(=O)(=O)c2cc(Cl)c(F)cc2O)c1O [Example J10, 5-Chloro-3-((5-chloro-4-fluoro-2-hydroxyphenyl)sulfonamido)-2-hydroxybenzoic acid]	21900
O=C(O)c1cc(Cl)cc(NS(=O)(=O)c2cc(Cl)c(Cl)cc2O)c1O [Example J11, 5-Chloro-3-((4,5-dichloro-2-hydroxyphenyl)sulfonamido)-2-hydroxybenzoic acid]	2490
CCc1cc(O)c(S(=O)(=O)Nc2cc(Cl)cc(C(=O)O)c2O)cc1Cl [Example J12, 5-Chloro-3-((5-chloro-4-ethyl-2-hydroxyphenyl)sulfonamido)-2-hydroxybenzoic acid]	11100
O=C(O)c1cc(Cl)cc(NS(=O)(=O)c2cc(Br)cc3cccnc23)c1O [Example J13, 3-((6-Bromoquinoline)-8-sulfonamido)-5-chloro-2-hydroxybenzoic acid]	780
CNC(=O)c1cc(Cl)cc(NS(=O)(=O)c2cc(Br)ccc2O)c1O [Example J14, 3-((5-Bromo-2-hydroxyphenyl)sulfonamido)-5-chloro-2-hydroxy-N-methylbenzamide]	370
COCCNC(=O)c1cc(Cl)cc(NS(=O)(=O)c2cc(Br)ccc2O)c1O [Example J15, 3-((5-Bromo-2-hydroxyphenyl)sulfonamido)-5-chloro-2-hydroxy-N-(2-methoxyethyl)benzamide]	610

Now from value to molecule:

Ki [nM]	Molecule
250	C[C@H](NC(=O)c1cc(OC(F)(F)F)cc(NS(=O)(=O)c2cc(Br)ccc2O)c1O)C(N)=O (stereo in doubt) [HCH-48, N-(1-Amino-1-oxopropan-2-yl)-3-((5-bromo-2-hydroxyphenyl)sulfonamido)-2-hydroxy-5-(trifluoromethoxy)benzamide]
90	O=C(O)c1cc(Cl)cc(NS(=O)(=O)c2cc(Br)ccc2O)c1O [Example J1, 3-((5-Bromo-2-hydroxyphenyl)sulfonamido)-5-chloro-2-hydroxybenzoic acid]
180	COc1ccc(Br)cc1S(=O)(=O)Nc1cc(Cl)cc(C(=O)O)c1O [Example J2, 3-((5-Bromo-2-methoxyphenyl)sulfonamido)-5-chloro-2-hydroxybenzoic acid]
60	O=C(O)c1cc(Cl)cc(NS(=O)(=O)c2cc(Br)cc(Cl)c2O)c1O [Example J4, 3-((5-Bromo-3-chloro-2-hydroxyphenyl)sulfonamido)-5-chloro-2-hydroxybenzoic acid]
340	O=C(O)c1cc(Cl)cc(NS(=O)(=O)c2cc(Br)cc(F)c2O)c1O [Example J5, 3-((5-Bromo-3-fluoro-2-hydroxyphenyl)sulfonamido)-5-chloro-2-hydroxybenzoic acid]
110	O=C(O)c1cc(Cl)cc(NS(=O)(=O)c2cc(Br)cc([N+](=O)[O-])c2O)c1O [Example J6, 3-((5-Bromo-2-hydroxy-3-nitrophenyl)sulfonamido)-5-chloro-2-hydroxybenzoic acid]
